Where two headings read alike, the source gives them in different places. Marks after values point to notes of the source that are not given here. One block for each compound: values may come before it.
Experiments:
IBD = conditions: ulcerative colitis and Crohn's disease, literature; cited from earlier work
DSS induced IBD model = test: 3% dextran sulfate sodium (DSS) induced acute rat IBD model (prophylactic effect); assay type: in vivo, Wistar rats; conditions: for inhibition at 100 mg/kg/day / inhibition at 10 mg/kg/day / inhibition at 1 mg/kg/day: Rattus norvegicus, po, read-out: Inhibition rate (%); for Feces score: Table 3 (effectiveness on feces score); for Feces score / ulcer area: mean ± SE; for ulcer area: Table 2 (title: ulcer area reduction effect), twice a day
Source text: IBD was induced by freely allowing male 7 week-old Wistar rats (purchased from Japan SLC, Inc.) to ingest 3% DSS solution (n=8). In the period of 7 days after initiating DSS administration, soft feces and blood feces scores were observed according to the following basis, and the sum of the soft feces score and blood feces score was obtained as the feces score of the individual animal.
• Soft feces score (0 to 3) • [0: nothing abnormal detected (NAD), • 1: slightly soft, • 2: soft, • 3: diarrhea] • Blood feces score (0 to 3) • [0: nothing abnormal detected (NAD), • 1: blood in feces, • 2: bright-red blood adhered on feces, • 3: melena]
(§1) 1% Evans blue physiological saline was intravenously injected in an amount of 1 ml per rat 8 days after DSS exposure, and the animal was euthanized 30 minutes after that for excising the large intestine. After immobilizing the large intestine in the length of 7 to 8 cm from anus with 4% formalin buffer for 20 minutes, the intestine was longitudinally opened from the mesenterium side for photographing the rectal portion. Ulcer area was calculated by image analysis.
Compound A (10 mg/kg/day), or. sulfasalazine (100 mg/kg/day) or prednisolone (1 mg/kg/day) as a control compound was made into suspension in an agate mortar, which was orally administered twice a day at a dose of 5 ml/kg to each rat starting from a day before administration of DSS to a day before dissection. In this connection, 1% hydroxypropylmethyl cellulose solution (HPMC) was used as a solvent, which was administered at a dose of 5 ml/kg to the solvent treated group.

TNBS induced IBD model [1] = test: Trinitrobenzene sulfonic acid (TNBS) induced rat IBD model (therapeutic effect); assay type: in vivo, SD rats; conditions: 5 mg/kg × 2 oral, from 2 days after TNBS
[2] = cited from earlier work
[3] = Test for converting Compound A into Compound B (oral 14C Compound A, Radio-HPLC); assay type: in vivo, Wistar rats; conditions: for Detection in plasma: 15 minutes after oral 14C labeled Compound A 1 mg/kg, fasting rats; for Detection in bile: bile collected for 8 hours after oral 14C labeled Compound A 1 mg/kg; for Detection in urine: urine collected for 24 hours after oral 14C labeled Compound A 1 mg/kg
Description: Male 8 week-old Wistar rats (purchased from Japan SLC, Inc.) under fasting conditions were orally administered with ^14C labeled Compound A at a dose of 1 mg/kg, and the amounts of Compound B in plasma, urine and bile were determined by Radio-HPLC.

TNBS induced IBD model [4] = test: Trinitrobenzene sulfonic acid (TNBS) induced rat IBD model (therapeutic effect); assay type: in vivo, SD rats
Description: 8 week-old male SD rats (purchased from Charles River
Laboratories Japan, Inc.) were intrarectally treated with TNBS to induce enteritis, and divided into groups 2 days after the treatment with TNBS to initiate the administration of the drugs. A solvent, Compound A (2, 20, 50 mg/kg/day), or prednisolone (6 mg/kg/day) was orally administered twice a day, and the rats were subjected to autopsy 8 days after administration for determining the macro observation score. The evaluation of the score was conducted by the method described in Table 4 according to the judgment method by JOHN L. WALLACE et al. (Gastroenterology 1989; 96: 29-36).
Furthermore, the large intestine was cut to a length of 10 cm for measuring the wet weight of intestine.

[5] = test system: carrageenin induced paw edema in rats; test: Carrageenin induced paw edema in rats; assay type: in vivo, Wistar rats; conditions: for Volume of edema: 3 h after carrageenin, mean ± SE
Description: To right hind paws of male 7 week-old Wistar rats (purchased from Japan SLC, Inc.) 0.1 ml of 1% λ-carrageenin was subcutaneously injected to cause paw edema reaction (n=5). Compound A at doses of 1 to 25 mg/kg and indomethacin at a dose of 5 mg/kg were orally administered 15 and 60 minutes before administration of carrageenin, respectively.
Three hours after administration of carrageenin, when the paw edema reaction reached maximum, the effectiveness was evaluated from the volumes of the right hind paw edema.

in vivo = test: in vivo; set-up: species or system SD rats; conditions: both sexes, SD, rat, po
Description: To 6 week-old male and female SD rats (purchased from
Charles River Laboratories Japan, Inc.) a solvent (hydroxymethyl cellulose) or Compound A (100, 300, 1000 mg/kg/day) was administered orally and repeatedly for 26 consecutive weeks (n=15).

[6] = test system: DSS induced rat IBD chronic model; test: DSS induced rat IBD chronic model (therapeutic effect); assay type: in vivo, Wistar rats; conditions: for Side effects such as inhibition of weight gain: rat, in vivo
Description: Colitis was induced by freely allowing male 7 week-old Wistar rats (purchased from Japan SLC, Inc.) to ingest 3% DSS solution for 3 days, and subsequently chronic IBD was induced by freely allowing to ingest 1% DSS solution starting from the 4th day of the test.
Compound A (2, 20 mg/kg/day), 5-aminosalicylic acid as a control (5-ASA: 200 mg/kg/day) and cyclosporine A (Cy A: 25 mg/kg/day) were administered to the animals starting from the 4th day of the test until the day of dissection (n=8 to 20).
The property of feces in individual animal was observed until the day before dissection, and the soft feces score and the blood feces score were determined according to the same basis as shown in Test Example 3 to obtain the sum of the soft feces score and blood feces score as the feces score.
as §1, with “Also, 1%” for “1%”, “on the day of dissection,” for “8 days after DSS exposure,”, “portion and measuring the rectum weight. The state and extent of eroded rectal portion were scored according to the following basis for making a macro observation score.” for “portion. Ulcer area was calculated by image analysis.”
Macro observation score (0-5)
[0: normal, • 1: erosion formation in narrow ranges, • 2: weak erosion formation, without bleeding, • 3: moderate erosion formation and weak bleeding in narrow ranges, • 4: strong erosion formation and bleeding in narrow ranges, • 5: strong erosion formation and bleeding in wide ranges]
A therapeutic effect of Compound B orally administered was examined in the same manner as in Test Example 4 except that Compound B (20 mg/kg/day) was used in place of Compound A (n=12).

splenocytes = test: Direct effect on the activation of T cells: cytokine production by ovalbumin-stimulated splenocytes (ELISA); assay type: cell-based, Balb/c mice; conditions: for Production of IFNγ / Production of IL-2 / Production of IL-5: culture for 24 hours
Description: 7 week-old male Balb/c mice (purchased from Japan SLC, Inc.) were sensitized with an aluminum hydroxide gel-ovalbumin suspension administered intraperitoneally or subcutaneously in both inguinal regions on the first and 14th days, and the spleen was excised on the 21st day for preparing a splenocyte suspension. After removal of erythrocytes, Compound B (10 μM) and ovalbumin were added to splenocytes suspended in a culture medium, and the mixture was cultured at 37° C. under a condition of 5% CO2.
IL-4 in the supernatant after culture for 6 hours, and IL-2, IL-5 and IFNγ in the supernatant after culture for 24 hours were quantitatively determined by ELISA (ELISA kit manufactured by ENDOGEN).

[7] = 20 mg/kg/day from 4th day, vs solvent treated group

Structure (SMILES): O=C([O-])c1cc(=O)c2c(OCC(O)COc3cccc4oc(C(=O)[O-])cc(=O)c34)cccc2o1.[Na+].[Na+] [disodium cromoglycate]
Effectiveness against IBD (IBD): ineffective against IBD

Structure (SMILES): O=C(O)c1cc(/N=N/c2ccc(S(=O)(=O)Nc3ccccn3)cc2)ccc1O [Sulfasalazine, sulfasalazine]
inhibition at 100 mg/kg/day (DSS induced IBD model; Table 2 (ulcer area reduction effect), 100 mg/kg/day oral): 8.2%
inhibition at 100 mg/kg/day (DSS induced IBD model; Table 3 (feces score), 100 mg/kg/day oral): 22.2%
Feces score (DSS induced IBD model; 100 mg/kg/day oral): 2.63 ± 0.50

Structure (SMILES): COc1cc2[nH]c(=O)c3nn(C(OC(=O)OC(C)C)C(C)C)nc3c(=O)c2cc1OC (centres unmarked) [Compound A, 2-(1-Isopropoxycarbonyloxy-2-methylpropyl)-7,8-dimethoxy-4(5H),10-dioxo-2H-1,2,3-triazolo[4,5-c][1]benzoazepine]
Colonic ulceration score (TNBS induced IBD model [1]): 3.5 ± 0.5
Absorbability upon oral administration relative to Compound B [2]: seven times as large as that of Compound B
Detection in plasma [3]: not detected
Detection in bile [3]: not detected
Metabolism of Compound A into Compound B on absorption ([3]; oral 1 mg/kg, rats): nearly all of Compound A was metabolized into Compound B
Detection in urine [3]: not detected
Colonic ulceration score (TNBS induced IBD model [4]; 1 mg/kg × 2 oral, from 2 days after TNBS): 3.5 ± 0.4
Colonic ulceration score (TNBS induced IBD model [4]; 25 mg/kg × 2 oral, from 2 days after TNBS): 3.3 ± 0.3
Weight gain (TNBS induced IBD model [4]; Compound A treated group (2 to 50 mg/kg/day oral)): significant inhibition of weight gain was not observed
Colonic ulceration score (TNBS induced IBD model [4]; Table 6 (title: colonic wet weight of large intestine, 10 cm), 25 mg/kg × 2 oral): 1.20 ± 0.04
Volume of edema ([5]; 1 mg/kg oral 15 min before carrageenin): 0.87 ± 0.04 mL
Volume of edema ([5]; 5 mg/kg oral 15 min before carrageenin): 0.89 ± 0.04 mL
Volume of edema ([5]; 25 mg/kg oral 15 min before carrageenin): 0.67 ± 0.05 mL
Inhibitory effect on paw edema ([5]; any doses (1 to 25 mg/kg oral)): no inhibitory effect
Side effects (DSS induced IBD model; 10 mg/kg/day oral): without any side effects
inhibition at 10 mg/kg/day (DSS induced IBD model; Table 2 (ulcer area reduction effect), 10 mg/kg/day oral): 36.4%
inhibition at 10 mg/kg/day (DSS induced IBD model; Table 3 (feces score), 10 mg/kg/day oral): 40.7%
ulcer area (DSS induced IBD model; 10 mg/kg/day oral): 291.3 ± 37.0
Feces score (DSS induced IBD model; 10 mg/kg/day oral): 2.00 ± 0.53
NOAEL at 26 weeks (in vivo): ≥ 1000 mg/kg/day
Effect on the feces score on the day before dissection (FIG. 3) ([6]; 2 mg/kg/day from 4th day): significant (P<0.005) ameliorating effect
Effect on the increase of rectum weight (FIG. 2) ([6]; 2 mg/kg/day from 4th day, vs solvent treated group): significant (P<0.005, P<0.05) ameliorating effect
Effect on macro observation score (FIG. 4) ([6]; 2 mg/kg, P=0.0509 category test, P=0.1161 segmentation test): inhibitory tendency
Effect on the feces score on the day before dissection (FIG. 3) ([6]; 20 mg/kg/day from 4th day): significant (P<0.005) ameliorating effect
Effect on the increase of rectum weight (FIG. 2) [6, 7]: significant (P<0.005, P<0.05) ameliorating effect
Effect on the shortening of large intestine (FIG. 1) [6, 7]: significant (P<0.01) ameliorating effect
Effect on macro observation score (FIG. 4) ([6]; 20 mg/kg/day, P=0.0006 category test, P=0.0003 segmentation test): significant ameliorating effect
Side effects such as inhibition of weight gain [6]: not observed

Detection in plasma [3]: detected as the main metabolite
Detection in bile [3]: detected as the main metabolite
Detection in urine [3]: detected as the main metabolite
Structure (SMILES): COc1cc2[nH]c(=O)c3nn[nH]c3c(=O)c2cc1OC [Compound B, 7,8-dimethoxy-4(5H),10-dioxo-1H-1,2,3-triazolo[4,5-c][1]benzoazepine]
Effect on macro observation score ([6]; 20 mg/kg/day oral): an inhibitory effect was recognized
Feces score on the day before dissection ([6]; 20 mg/kg/day oral, n=12, solvent treated group 1.9±0.25, P<0.05): 0.9±0.24
Side effects such as inhibition of weight gain [6]: not observed
Production of IL-4 (splenocytes; 10 μM, culture for 6 hours): did not inhibit
Production of IFNγ (splenocytes; 10 μM): did not inhibit
Production of IL-2 (splenocytes; 10 μM): did not inhibit
Production of IL-5 (splenocytes; 10 μM): did not inhibit

Structure (SMILES): Nc1ccc(O)c(C(=O)O)c1 [Compound 5-ASA, 5-aminosalicylic acid, reference compound]
Inhibitory effects in any evaluation items ([6]; 200 mg/kg/day from 4th day): significant inhibitory effects were not recognized

Structure (SMILES): COc1ccc2c(c1)c(CC(=O)O)c(C)n2C(=O)c1ccc(Cl)cc1 [Indomethacin, indomethacin, reference compound]
Inhibitory effect on paw edema ([5]; 5 mg/kg oral): significant (p<0.01) inhibitory effect
Volume of edema ([5]; 5 mg/kg oral 60 min before carrageenin): 0.48 ± 0.04 mL

Structure (SMILES): C[C@]12C=CC(=O)C=C1CC[C@@H]1[C@@H]2[C@@H](O)C[C@@]2(C)[C@H]1CC[C@]2(O)C(=O)CO [Prednisolone, prednisolone, reference compound]
Colonic ulceration score (TNBS induced IBD model [4]; 3 mg/kg × 2 oral, from 2 days after TNBS): 3.0 ± 0.5^b
Weight gain (TNBS induced IBD model [4]; 6 mg/kg/day oral): remarkable inhibition of (P<0.01) weight gain
Colonic ulceration score (TNBS induced IBD model [4]; Table 6 (title: colonic wet weight of large intestine, 10 cm), 3 mg/kg × 2 oral): 1.05 ± 0.09^bb
Weight gain (side effect) (DSS induced IBD model; 1 mg/kg/day oral): significant weight gain inhibitory effect
inhibition at 1 mg/kg/day (DSS induced IBD model; Table 2 (ulcer area reduction effect), 1 mg/kg/day oral): 26.1%
inhibition at 1 mg/kg/day (DSS induced IBD model; Table 3 (feces score), 1 mg/kg/day oral): 40.7%
ulcer area (DSS induced IBD model; 1 mg/kg/day oral): 337.5 ± 34.1
Feces score (DSS induced IBD model; 1 mg/kg/day oral): 2.00 ± 0.42
Production of IFNγ (splenocytes; concentration not given): almost completely inhibited
Production of IL-2 (splenocytes; concentration not given): almost completely inhibited
Production of IL-5 (splenocytes; concentration not given): almost completely inhibited
